Measured values from patent publication US6642365B1, “Anti-(retro)viral conjugates of saccharides and acetamidino or guanidino compounds” (Yeda Research and Development Co. Ltd., priority 2001, dated 2003).
“Also recorded” adds a separate entry of the source.

Tests used:
TAR RNA = experiment: RNase A footprinting of TAR RNA; assay type: binding, HIV-1; details: 1 μM TAR, 200 pM RNase A
Description: In a typical experiment 10 μl of 5 mM cacodylate buffer pH 6.5, containing 25 mM KCl and 50-100 ng 5′ ^32P-labeled TAR RNA (approximately 0.5-1 μM) were incubated with 200 pM RNase A (Sigma) at room temperature for 10 minutes in the presence of Tat R52 and the conjugates of the invention at various concentrations. In the competition experiments, the mixture was supplemented with 0.5 μg yeast tRNA (Sigma). After the incubation, 10 μl of formamide/bromphenol blue loading buffer was added to the samples. The samples were heated to 80° C. for 2 min and were resolved by electrophoresis on 40 cm×0.8 mm 20% polyacrylamide denaturing gel (7M urea) for 3 hours at 55° C. The results were visualized by a phosphoimager as described above and quantitated using ImageQuant software.
TAR RNA and RNase A concentrations were established by co-titration. To produce a “single-hit” kinetics conditions, 1 μM TAR versus 200 pM RNase A were selected. Tat R52 and AAC concentrations were determined by titration. […] RNase A cleaved TAR RNA in an uneven manner (FIG. 4A., lane 2). The most susceptible regions for cleavage were the single-stranded loop, nucleotides U31-G34 as well as C24 and U25 of the bulge. Strong cleavage was also observed at G21-G41 and A20-U42 pairs (lower stem). Binding of R52 (2-4 μM) caused a weakening of the bands in the upper stem region, (G26-C39, A27-C38, as well as U40) (FIG. 4A., lanes 3, 4). At 4 μM R52, the cleavage at G34 (loop) was enhanced, as well as a certain enhancement of bands A20, G21, U23 and U25 was observed. Remarkably, the band corresponding to the R52-TAR complex still was observed on the gels even after electrophoresis under strongly denaturing conditions. In the presence of R4K (10-20 μM), the upper stem (G26-C29), the lower stem and the bulge (G21-U23, partially C24 and U25) were protected as well as C38, C39 and U40. Cleavage at C19 and A20 of the lower stem and C30, G33 and G34 of the loop was enhanced by 10 μM R4K, whereas with 20 μM R4K the protection of C30, G34 and A20-G21 was observed (FIG. 4A., lanes 5, 6). […] Cleavages at C19-A20 in the lower stem as well as at G30 and G34 in the loop were observed (FIG. 4A., lanes 7, 8). In the presence of GB4K (20 μM) no significant protection was observed.

CXCR4 [1] = molecular target: T1, CXCR4 (Homo sapiens, UniProt P61073); details: SDF-1α 20 ng/ml
[2] = tested on: equine infectious anemia virus (EIAV); experiment: Antiviral activity in EIAV-infected ED fibroblasts; assay type: cell-based; details: for EIAV replication in ED cells (FIG. 8): R3G at 12.5 and 25 μM, R4K at 50 and 100 μM, 10 pfu per cell
Description: Both equine dermal fibroblasts (ED) and Equine Infectious Anemia Virus (EIAV), Wyoming isolate (Malmquist et al., 1973) were gifts from Profs. A. Yaniv and A. Gazit, from the Sackler Medical School of the Tel-Aviv University, Israel. ED cells were plated on plastic 6-well tissue culture plates (Nunclone) at density of […] per well in 2 ml of DMEM/10% FCS (fetal calf serum). The medium was removed after 12-20 hours and the cells were inoculated for 2 hours with 0.5 ml DMEM/10% FCS containing 5×10^6 pfu (plaque forming units) of EIAV and 10 μg/ml of polybrene (hexadimetrine bromide, Sigma) (Carpenter and Chesebro, 1989). Following the incubation, another 2.5 ml of DMEM/10% FCS was added to each well. […] Every […], 1.2 ml samples of the medium were collected and replaced with same amount of medium, containing radioactive uridine and the tested. The samples were clarified from cell debris by spinning at 12000 rpm for 5 minutes on the Eppendorf centrifuge. Viral particles from the clarified supernatants were collected by ultracentrifugation at 75000 rpm, 4° C. on the Beckman TL 100 centrifuge using TLA 100.2 rotor (Cheevers et al., 1977). The supernatants were carefully discarded and the pellet was resuspended in 200 μl of 1% SDS/5% Tritone X-100, mixed with 1 ml Ultima Gold scintillation liquid (Packard) and counted on LS 1701 Bruker scintillation counter. Typical duration of the experiment was 15 days; EIAV growth curves in the presence of various concentrations of the conjugates in the medium were obtained. Development of the cytopathic effect (cpe) in the infected ED cells was monitored by light microscopy.
Equine infectious anemia virus (EIAV) of Wyoming strain is adapted to grow in equine dermal fibroblasts (ED), without damaging them with a titer of 1 μfu per cell (Malmquist virus). […] In the absence of inhibitors, EIAV proliferated in the ED cells reaching a plato 9-12 days after infection (FIG. 8). […] Development of cpe started 10-12 days after infection, reaching a maximum on days 15-17, followed by rapid cell death and exfoliation from the plastic bottom of the well.

[3] = tested on: rG15, rG15-rC15 duplex and truncated TAR RNA sequences; experiment: Gel-shift binding to short RNA oligonucleotides (specificity); details: micromolar concentration range; data not shown
CXCR4 [4] = molecular target: T1, CXCR4; experiment: Inhibition of anti-CXCR4 mAb (12G5) binding, flow cytometry, SUP-T1 cells; set-up: endogenous in cells; details: for affinity for CXCR4: inhibition of 12G5 binding to SUP-T1 cells or PMBC
Description: Measurement of chemokine receptors CXCR4, CCR5 and the CD4 receptor on phytohemagglutinin (PHA)-activated PBMC was performed by flow cytometry analysis. Briefly, 0.5×10^6 cells were washed in ice-cold phosphate-buffered saline (PBS) and incubated for 30 minutes at 4÷C. with fluorescent labelled mAb 12G5 and 2D7 and Leu3a (Becton Dickinson, San Jose, Calif.) or with isotype control mAbs in the presence or absence of the test compound. Then, the cells were washed with ice-cold PBS and were fixed in PBS containing 1% formaldehyde. For each sample, 10,000 events were analysed in a FACScalibur™ system (Becton Dickinson). Data were acquired and analysed with CellQuest™ software (Becton Dickinson).

T1 sequence (P61073 whole entry): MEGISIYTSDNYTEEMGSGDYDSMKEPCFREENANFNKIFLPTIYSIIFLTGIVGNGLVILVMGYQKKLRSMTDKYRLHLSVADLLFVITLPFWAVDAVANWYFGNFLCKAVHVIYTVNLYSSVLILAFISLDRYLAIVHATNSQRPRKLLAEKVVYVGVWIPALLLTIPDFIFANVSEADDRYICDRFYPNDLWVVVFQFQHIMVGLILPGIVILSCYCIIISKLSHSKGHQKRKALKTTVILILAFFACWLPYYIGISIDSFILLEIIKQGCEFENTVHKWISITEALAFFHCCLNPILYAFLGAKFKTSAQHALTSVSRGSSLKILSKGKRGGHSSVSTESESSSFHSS

Compound	concentration giving effective protection of TAR (TAR RNA) [µM]	SDF-1α-dependent Ca2+ signal (CXCR4 [1])	EIAV replication in ED cells (FIG. 8) [2]	binding to short RNA oligonucleotides [3]	IC50 (CXCR4 [4]) [µM]	affinity for CXCR4 (CXCR4 [4])	phenotype of EIAV-infected ED cells ([2]; 25 μM, day 13-15)	inhibition of cpe development ([2]; 25 and 50 μM, after 13-15 days)	viral titer compared to control ([2]; added during cpe onset (day 12-13), read at day 15)
N=C(N)NCCCC(N)C(=O)NCC1OC(OC2C(NC(=O)C(N)CCCNC(=N)N)CC(NC(=O)C(N)CCCNC(=N)N)C(OC3OC(CO)C(O)C(NC(=O)C(N)CCCNC(=N)N)C3O)C2O)C(O)C(O)C1O (stereo not drawn) [R4K, Tetraargininamido-kanamycin A conjugate]	10	inhibited; also recorded: blocked	inhibited the viral growth	did not display any binding	3.7	high affinity			
Triargininamido-gentamicin conjugate [R3G]	4	inhibited; also recorded: blocked	inhibited the viral growth	did not display any binding	7.7	high affinity	preserved normal fibroblast phenotype	noticeable inhibition of the cpe development	decreased at least twice
